Measured values published in patent publication US20160287554A1, “Small Molecule Metal-Activated Protein Inhibition” (University of South Florida, priority 2015, published 2016).
Values joined by “and” are separate entries in the source; they are usually repeats but may differ in a detail not shown here. Equal entries are not always repeated. Each block holds one compound with its values, some of them ahead of it.

Molecular target: 20S proteasome (Homo sapiens, UniProt P28074)
Experiment: 20S proteasome chymotrypsin-like activity assay, cleavage of suc-leu-leu-val-tyr-AMC (fluorescence), with or without copper chloride
Assay type: biochemical
Settings: for inhibition against the proteasome: one-dose experiments, 10 μM compound in the presence of 1 μM copper
Source text: Pro-drug compounds, according to embodiments of the invention, include: 3,4-dihydroxybenzoic acid; galloflavin; 2-{[(carbamoylsulfanyl)acetyl]amino}benzoic acid; 6,7-Dihydroxycoumaranone; 3,6-bis(hydroxymethyl)pyridazin-4(1H)-one; and 4′,5,7-trihydroxyisoflavone, as shown in FIG. 1. These compounds, and analogs thereof, can act individually or can be used in combination. These compounds, and similar compounds, are capable of binding copper ions and facilitating inhibition of the proteasome. These compounds, and similar compounds, are safe and efficacious theranostics and/or drugs to detect and/or treat cancers. These compounds are from the NCI Diversity Set 3. Preliminary identification of these compounds as potential Cu-complexes with the proteasome was conducted using an in silico screening method, according to an embodiment of the invention, for example, with graphic representations of the calculated docking of the pro-drugs of FIG. 1 with copper ion and the proteasome, as shown in FIGS. 2-7. The modeling method indicates the potential of candidates as the pro-drugs, which are tested experimentally to confirm their efficiency using an in vitro experimental assay that tests for inhibition of the chymotrypsin-like activity of the 20S proteasome.
A Beckman Coulter Biomek FX^P Lab Automation Workstation was used for automating the assays. A Perkin Elmer EnVision 2102 multilabel plate reader was used to read the plates by fluorescence measurements. Assays were performed in 384 well black Nunc plates. Each compound (2 μl in DMSO), when tested without copper chloride was added to 28 μl of buffer (50 mM Tris at pH 7.6 and 37° C.), with 20 μM, 10 μl 20S proteasome and 10 μl of suc-leu-leu-val-tyr-AMC as the substrate (purchased from Boston Biochem), and the rate of substrate cleavage by 20S proteasome activity was determined. In the presence of copper, the buffer amount was decreased to 25 μl and 3 μl copper chloride was used for chelation with the compound for testing in the presence of copper. To allow chelation of copper to the compound, the plate was allowed to sit for 40 minutes with gentle shaking. The overall volume per well was held at 50 μL. The compounds and substrate were initially dissolved in 100% DMSO, but the final concentration of DMSO per well plate was reduced to less than 2% following subsequent dilutions. Plates were incubated at 37° C. for 2 hours. For dose response curves, the concentrations of copper chloride and a pro-drug compound, were varied to get optimal activity. The plates were read with 340 nm excitation and 460 nm emission using the plate reader. All liquid transfers to the plates were automated using the Biomek workstation.

[1] = NSC 37408 0.01 uM, CuCl2 0.01 uM
[2] = NSC 37408 0.01 uM, CuCl2 0.05 uM
[3] = NSC 37408 0.01 uM, CuCl2 0.1 uM
[4] = NSC 37408 0.01 uM, CuCl2 0.5 uM
[5] = NSC 37408 0.02 uM, CuCl2 0.01 uM
[6] = NSC 37408 0.02 uM, CuCl2 0.05 uM
[7] = NSC 37408 0.02 uM, CuCl2 0.1 uM
[8] = NSC 37408 0.02 uM, CuCl2 0.5 uM
[9] = NSC 37408 0.2 uM, CuCl2 0.01 uM
[10] = NSC 37408 0.2 uM, CuCl2 0.05 uM
[11] = CuCl2 0.01 uM alone (NSC 37408 0 uM)
[12] = CuCl2 0.05 uM alone (NSC 37408 0 uM)
[13] = CuCl2 0.1 uM alone (NSC 37408 0 uM)
[14] = CuCl2 0.5 uM alone (NSC 37408 0 uM)
[15] = CuCl2 1 uM alone (NSC 37408 0 uM)
[16] = CuCl2 10 uM alone (NSC 37408 0 uM)

% Activity (NSC 37408 0.01 uM, CuCl2 0 uM): 112.6213% and 99.65% | Average % inhibition (NSC 37408 0.01 uM, CuCl2 0 uM): −6.135% | % Activity [1]: 90.87% and 88.81% | Average % inhibition [1]: 10.1605% | % Activity [2]: 86.05% and 85.2009% | Average % inhibition [2]: 14.38% | % Activity [3]: 72.84% and 76.28% | Average % inhibition [3]: 25.44% | % Activity [4]: 54.66% and 61.76% | Average % inhibition [4]: 41.79% | % Activity (NSC 37408 0.01 uM, CuCl2 1 uM): 44.58% and 55.7695% | Average % inhibition (NSC 37408 0.01 uM, CuCl2 1 uM): 49.82% | % Activity (NSC 37408 0.01 uM, CuCl2 10 uM): 19.49% and 20.5% | Average % inhibition (NSC 37408 0.01 uM, CuCl2 10 uM): 80.0042% | % Activity (NSC 37408 0.02 uM, CuCl2 0 uM): 96.06% and 94.02% | Average % inhibition (NSC 37408 0.02 uM, CuCl2 0 uM): 4.963% | % Activity [5]: 88.1% and 90.5198% | Average % inhibition [5]: 10.69% | % Activity [6]: 68.1% and 55.31% | Average % inhibition [6]: 38.29% | % Activity [7]: 65.88% and 61.48% | Average % inhibition [7]: 36.32% | % Activity [8]: 51.0064% and 59.2161% | Average % inhibition [8]: 44.89% | % Activity (NSC 37408 0.02 uM, CuCl2 1 uM): 56.05% and 43.65% | Average % inhibition (NSC 37408 0.02 uM, CuCl2 1 uM): 50.1481% | % Activity (NSC 37408 0.02 uM, CuCl2 10 uM): 17.83% and 17.5873% | Average % inhibition (NSC 37408 0.02 uM, CuCl2 10 uM): 82.29% | % Activity (NSC 37408 0.2 uM, CuCl2 0 uM): 105.3933% and 82.75% | Average % inhibition (NSC 37408 0.2 uM, CuCl2 0 uM): 5.927% | % Activity [9]: 94.36% and 76.52% | Average % inhibition [9]: 14.5582% | % Activity [10]: 85.2901% and 82.94% | Average % inhibition [10]: 15.89% | % Activity (NSC 37408 0.2 uM, CuCl2 0.1 uM): 73.85% and 60.05% | Average % inhibition (NSC 37408 0.2 uM, CuCl2 0.1 uM): 33.05% | % Activity (NSC 37408 0.2 uM, CuCl2 0.5 uM): 64.18% and 61.99% | Average % inhibition (NSC 37408 0.2 uM, CuCl2 0.5 uM): 36.91% | % Activity (NSC 37408 0.2 uM, CuCl2 1 uM): 56.85% and 54.95% | Average % inhibition (NSC 37408 0.2 uM, CuCl2 1 uM): 44.1% | % Activity (NSC 37408 0.2 uM, CuCl2 10 uM): 19.46% and 18.13% | Average % inhibition (NSC 37408 0.2 uM, CuCl2 10 uM): 81.2011% | % Activity (NSC 37408 1 uM, CuCl2 0 uM): 103.1804% and 90.54% | Average % inhibition (NSC 37408 1 uM, CuCl2 0 uM): 3.138% | % Activity (NSC 37408 1 uM, CuCl2 0.01 uM): 72.59% and 75.01% | Average % inhibition (NSC 37408 1 uM, CuCl2 0.01 uM): 26.2% | % Activity (NSC 37408 1 uM, CuCl2 0.05 uM): 66.45% and 67.81% | Average % inhibition (NSC 37408 1 uM, CuCl2 0.05 uM): 32.87% | % Activity (NSC 37408 1 uM, CuCl2 0.1 uM): 65.45% and 59.72% | Average % inhibition (NSC 37408 1 uM, CuCl2 0.1 uM): 37.4167% | % Activity (NSC 37408 1 uM, CuCl2 0.5 uM): 56.12% and 54.11% | Average % inhibition (NSC 37408 1 uM, CuCl2 0.5 uM): 44.88% | % Activity (NSC 37408 1 uM, CuCl2 1 uM): 57.76% and 41.6248% | Average % inhibition (NSC 37408 1 uM, CuCl2 1 uM): 50.31% | % Activity (NSC 37408 1 uM, CuCl2 10 uM): 14.11% and 16.23% | Average % inhibition (NSC 37408 1 uM, CuCl2 10 uM): 84.83% | % Activity (NSC 37408 2 uM, CuCl2 0 uM): 97.24% and 74.12% | Average % inhibition (NSC 37408 2 uM, CuCl2 0 uM): 14.32% | % Activity (NSC 37408 2 uM, CuCl2 0.01 uM): 87.55% and 75.89% | Average % inhibition (NSC 37408 2 uM, CuCl2 0.01 uM): 18.28% | % Activity (NSC 37408 2 uM, CuCl2 0.05 uM): 61.5% and 61.91% | Average % inhibition (NSC 37408 2 uM, CuCl2 0.05 uM): 38.3% | % Activity (NSC 37408 2 uM, CuCl2 0.1 uM): 62.98% and 55.45% | Average % inhibition (NSC 37408 2 uM, CuCl2 0.1 uM): 40.79% | % Activity (NSC 37408 2 uM, CuCl2 0.5 uM): 50.79% and 47.45% | Average % inhibition (NSC 37408 2 uM, CuCl2 0.5 uM): 50.8784% | % Activity (NSC 37408 2 uM, CuCl2 1 uM): 41.16% and 35.42% | Average % inhibition (NSC 37408 2 uM, CuCl2 1 uM): 61.71% | % Activity (NSC 37408 2 uM, CuCl2 10 uM): 15.32% and 15.04% | Average % inhibition (NSC 37408 2 uM, CuCl2 10 uM): 84.82% | % Activity (NSC 37408 20 uM, CuCl2 0 uM): 99.79% and 91.1158% | Average % inhibition (NSC 37408 20 uM, CuCl2 0 uM): 4.548% | % Activity (NSC 37408 20 uM, CuCl2 0.01 uM): 71.91% and 89.68% | Average % inhibition (NSC 37408 20 uM, CuCl2 0.01 uM): 19.21% | % Activity (NSC 37408 20 uM, CuCl2 0.05 uM): 54.92% and 76.06% | Average % inhibition (NSC 37408 20 uM, CuCl2 0.05 uM): 34.51% | % Activity (NSC 37408 20 uM, CuCl2 0.1 uM): 49.04% and 30.46% | Average % inhibition (NSC 37408 20 uM, CuCl2 0.1 uM): 60.25% | % Activity (NSC 37408 20 uM, CuCl2 0.5 uM): 36.6% and 25.36% | Average % inhibition (NSC 37408 20 uM, CuCl2 0.5 uM): 69.02% | % Activity (NSC 37408 20 uM, CuCl2 1 uM): 25.4789% and 22.77% | Average % inhibition (NSC 37408 20 uM, CuCl2 1 uM): 75.88% | % Activity (NSC 37408 20 uM, CuCl2 10 uM): 7.426% and 7.089% | Average % inhibition (NSC 37408 20 uM, CuCl2 10 uM): 92.74% | IC50 (dose-response assay, in presence of 100 nM copper (FIG. 13)): 3000 nM | inhibition against the proteasome: superior inhibition | inhibition in the absence of copper ion (various concentrations, no copper (FIG. 10)): little if any inhibition
Compound: 6,7-dihydroxycoumaranone [NSC 37408]
capacity to inhibit the proteasome compared with copper chloride alone (first round of screening (Table 1), compound complexed with copper): better capacity to inhibit the proteasome than copper chloride alone | percent inhibition in the presence of copper versus compound alone (sub-micromolar copper, triplicate (FIG. 13)): dramatic improvement of percent inhibition

% Activity [11]: 116.1267% and 79.27% | Average % inhibition [11]: 2.302% | % Activity [12]: 92.35% and 88.54% | Average % inhibition [12]: 9.555% | % Activity [13]: 82.9012% and 74.33% | Average % inhibition [13]: 21.39% | % Activity [14]: 50.13% and 54.8853% | Average % inhibition [14]: 47.49% | % Activity [15]: 65.79% and 56.9% | Average % inhibition [15]: 38.65% | % Activity [16]: 21.19% and 16.25% | Average % inhibition [16]: 81.28% | EC50 (copper chloride alone, dose response (FIG. 11), read-out: EC50 of inhibitory effect on the % activity of the proteasome): 686 nM | inhibitory activity of copper absent the pro-drug (sub-micromolar copper concentration (FIG. 13)): no significant inhibitory activity
Compound: [Cl][Cu][Cl] [CuCl2, copper chloride, reference compound]

inhibition against the proteasome: superior inhibition
Compound: NC(=O)SCC(=O)Nc1ccccc1C(=O)O [compound 13345, 2-{[(carbamoylsulfanyl)acetyl]amino}benzoic acid]

Compound: O=C(O)c1ccc(O)c(O)c1 [compound 16631, 3,4-dihydroxybenzoic acid]
inhibition against the proteasome: superior inhibition

inhibition against the proteasome: superior inhibition
Compound: O=c1c(-c2ccc(O)cc2)coc2cc(O)cc(O)c12 [compound 36586, 4′,5,7-trihydroxyisoflavone]

inhibition against the proteasome: superior inhibition
Compound: O=c1oc2c(cc1O)oc(=O)c1cc(O)c(O)c(O)c12 [compound 107022, galloflavin]

inhibition against the proteasome: superior inhibition
Compound: O=c1cc(CO)[nH]nc1CO [compound 166900, 3,6-bis(hydroxymethyl)pyridazin-4(1H)-one]
